The target of this assay is acetylcholinesterase (AChE) (Electrophorus electricus, UniProt O42275). The experiment in a line: Ellman spectrophotometric microplate assay, […] nm. It counts as biochemical. (In Ellman's method for cholinesterases, released thiocholine reacts with DTNB.)
acetylcholinesterase (AChE), sequence (O42275 24-633): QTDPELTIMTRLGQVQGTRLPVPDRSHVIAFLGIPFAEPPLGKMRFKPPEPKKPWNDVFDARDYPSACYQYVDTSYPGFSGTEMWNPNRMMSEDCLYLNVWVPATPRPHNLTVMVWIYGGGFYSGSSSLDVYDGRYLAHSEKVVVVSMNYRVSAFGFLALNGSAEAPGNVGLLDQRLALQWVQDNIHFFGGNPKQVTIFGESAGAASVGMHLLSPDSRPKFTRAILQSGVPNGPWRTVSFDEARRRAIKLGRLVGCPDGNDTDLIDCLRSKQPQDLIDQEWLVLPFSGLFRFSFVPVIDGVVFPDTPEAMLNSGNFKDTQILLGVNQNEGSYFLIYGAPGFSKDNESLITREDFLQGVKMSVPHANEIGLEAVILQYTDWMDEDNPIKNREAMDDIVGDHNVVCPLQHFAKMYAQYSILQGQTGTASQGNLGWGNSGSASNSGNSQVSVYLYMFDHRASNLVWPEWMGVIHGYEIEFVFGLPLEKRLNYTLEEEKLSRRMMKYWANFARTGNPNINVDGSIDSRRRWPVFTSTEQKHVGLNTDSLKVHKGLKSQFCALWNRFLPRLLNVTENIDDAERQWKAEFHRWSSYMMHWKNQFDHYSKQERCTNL
In the case of `CC(=O)O[C@H]1[C@H]2c3cc4c(cc3C=[N+]3CCC(=C[C@@H]1O)[C@H]23)OCO4` [compound 1, 1-O-acetyl-5,6-dehydrolycorine], the IC50 is 620 µM. `CC(=O)O[C@H]1[C@H]2c3cc4c(cc3CN3CCC(=C[C@@H]1O)[C@H]23)OCO4` [compound 2, 1-O-acetyl-lycorine] showed an IC50 of 1430 µM. Consider `CC(=O)OC1[C@@H](OC(C)=O)C=C2CC[N+]3=Cc4cc5c(cc4[C@H]1[C@@H]23)OCO5` (stereo partly drawn) [compound 3, 1,2-O-diacetyl-5,6-dehydrolycorine], for which the IC50 was 46.3 µM.

In general, IC50 refers to the concentration at which inhibition is half-maximal.

The values are drawn from publication PMC7465821, “Isolation of Three Lycorine Type Alkaloids from Rhodolirium speciosum (Herb.) Ravenna Using pH-Zone-Refinement Centrifugal Partition Chromatography and Their Acetylcholinesterase Inhibitory Activities” (Metabolites, 2020).
